{"source": "ChEMBL document CHEMBL5260852", "about": "“Long-Acting Tumor-Activated Prodrug of a TGFβR Inhibitor” (J Med Chem, 2021)", "key": {"[1]": {"assay": "Drug concentration in C57BL/6 mouse plasma at 6 mg/kg,iv and measured after 24 hrs by LC-MS/MS analysis", "type": "ADME, organism-based"}, "[2]": {"assay": "AUC in C57BL/6 mouse plasma at 6 mg/kg,iv and measured upto 24 hrs by LC-MS/MS analysis", "type": "ADME, organism-based", "set-up": "dose 6 mg/kg, time < 24 hrs, route iv"}, "[3]": {"assay": "Stability in mouse plasma assessed as parent compound remaining after 24 hrs by HPLC-MS analysis", "type": "ADME, cell-free", "details": "read-out: Stability"}, "[4]": {"assay": "Stability in rat plasma assessed as parent compound remaining after 24 hrs by HPLC-MS analysis", "type": "ADME, cell-free", "details": "read-out: Stability"}, "[5]": {"assay": "Prodrug conversion in blood of C57BL/6 mouse xenografted mouse MC38 cells assessed as BMS-986260 Cmax at 8 mg/kg,iv and measured after 72 hrs by LC-MS/MS analysis", "type": "ADME, organism-based, MC-38", "set-up": "dose 8 mg/kg, time 72 hrs, route iv", "details": "in vivo"}, "[6]": {"assay": "Prodrug conversion in heart of C57BL/6 mouse xenografted mouse MC38 cells assessed as BMS-986260 Cmax at 8 mg/kg,iv and measured after 72 hrs by LC-MS/MS analysis", "type": "ADME, organism-based, MC-38", "set-up": "dose 8 mg/kg, time 72 hrs, route iv", "details": "in vivo"}, "[7]": {"assay": "Prodrug conversion in tumor of C57BL/6 mouse xenografted mouse MC38 cells assessed as BMS-986260 Cmax at 8 mg/kg,iv and measured after 72 hrs by LC-MS/MS analysis", "type": "ADME, organism-based, Neoplasm, MC-38", "set-up": "dose 8 mg/kg, time 72 hrs, route iv", "details": "in vivo"}, "[8]": {"assay": "Prodrug conversion in blood of C57BL/6 mouse xenografted mouse MC38 cells assessed as BMS-986260 Tmax at 8 mg/kg,iv and measured after 72 hrs by LC-MS/MS analysis", "type": "ADME, organism-based, MC-38", "details": "in vivo"}, "[9]": {"assay": "Prodrug conversion in heart of C57BL/6 mouse xenografted mouse MC38 cells assessed as BMS-986260 Tmax at 8 mg/kg,iv and measured after 72 hrs by LC-MS/MS analysis", "type": "ADME, organism-based, MC-38", "details": "in vivo"}, "[10]": {"assay": "Prodrug conversion in tumor of C57BL/6 mouse xenografted mouse MC38 cells assessed as BMS-986260 Tmax at 8 mg/kg,iv and measured after 72 hrs by LC-MS/MS analysis", "type": "ADME, organism-based, Neoplasm, MC-38", "details": "in vivo"}, "[11]": {"assay": "Prodrug conversion in blood of C57BL/6 mouse xenografted mouse MC38 cells assessed as BMS-986260 AUC (0 to 72 hrs) at 8 mg/kg,iv and measured after 72 hrs by LC-MS/MS analysis", "type": "ADME, organism-based, MC-38", "set-up": "time 72 hrs, dose 8 mg/kg, route iv", "details": "in vivo"}, "[12]": {"assay": "Prodrug conversion in heart of C57BL/6 mouse xenografted mouse MC38 cells assessed as BMS-986260 AUC (0 to 72 hrs) at 8 mg/kg,iv and measured after 72 hrs by LC-MS/MS analysis", "type": "ADME, organism-based, MC-38", "set-up": "time 72 hrs, dose 8 mg/kg, route iv", "details": "in vivo"}, "[13]": {"assay": "Prodrug conversion in tumor of C57BL/6 mouse xenografted mouse MC38 cells assessed as BMS-986260 AUC (0 to 72 hrs) at 8 mg/kg,iv and measured after 72 hrs by LC-MS/MS analysis", "type": "ADME, organism-based, Neoplasm, MC-38", "set-up": "time 72 hrs, dose 8 mg/kg, route iv", "details": "in vivo"}, "[14]": {"assay": "Prodrug conversion in C57BL/6 mouse xenografted mouse MC38 cells assessed as BMS-986260 ratio of AUC in heart to blood at 8 mg/kg,iv and measured after 72 hrs by LC-MS/MS analysis", "type": "ADME, organism-based, MC-38", "details": "other tissue"}, "[15]": {"assay": "Prodrug conversion in blood of C57BL/6 mouse xenografted mouse MC38 cells assessed as BMS-986260 ratio of AUC in tumor to blood at 8 mg/kg,iv and measured after 72 hrs by LC-MS/MS analysis", "type": "ADME, organism-based, MC-38", "details": "tumour"}, "[16]": {"assay": "Prodrug conversion in blood of C57BL/6 mouse xenografted mouse MC38 cells assessed as BMS-986260 ratio of AUC in tumor to heart at 8 mg/kg,iv and measured after 72 hrs by LC-MS/MS analysis", "type": "ADME, organism-based, MC-38", "details": "in vivo"}, "[17]": {"assay": "Toxicity in C57BL/6 mouse at 80 mg/kg,iv", "type": "organism-based", "details": "in vivo"}, "MC-38": {"test_system": "MC-38", "assay": "Antitumor activity against mouse MC38 cells allografted in C57BL/6 mouse assessed as reduction in tumor volume at 40 to 80 mg/kg, iv for 4 weeks in presence of anti-PD-1 antibody", "type": "functional, organism-based", "details": "dose 40-80 mg/kg"}, "[18]": {"assay": "AUC (0 to 24 hrs) in rat at 3 mg/kg,iv for 3 months", "type": "ADME, organism-based", "set-up": "time 3 months, dose 3 mg/kg, route iv", "details": "in vivo"}, "[19]": {"assay": "AUC (0 to 72 hrs) in rat at 40 mg/kg,iv for 3 months", "type": "ADME, organism-based", "set-up": "time 3 months, dose 40 mg/kg, route iv", "details": "in vivo"}, "[20]": {"assay": "AUC (0 to 72 hrs) in rat at 3 mg/kg,iv for 3 months", "type": "ADME, organism-based", "set-up": "dose 3 mg/kg, time 3 months, route iv", "details": "in vivo"}, "[21]": {"assay": "Toxicity in rat assessed as mortality at 3 mg/kg,iv for 3 months", "type": "organism-based", "details": "in vivo, 2190 h"}}, "note": "Calls of active or inactive are those of the source. The calls are words filed in the database; no cut-off is given here. Numbered stars: 1 amine (or outer) side, 2 acyl side, 3 side chain; on linkers, the order of the positions; unused ones are H or OH. Square brackets hold non-standard residues; d marks the D form. Peptide text beside a SMILES is read from it. * marks the point of attachment. X1 = N#Cc1cnc2ccc(-c3c(-c4ccc(F)c(Cl)c4)ncn3CCOCN*)nn12; C18 diacid = O=C(O)CCCCCCCCCCCCCCCCC(=O)*; γGlu = O=C(O)[C@H](CCC(=O)[*:2])N[*:1]; PABC = O=C(OCc1ccc(N[*:1])cc1)[*:2]; AEEA = NCCOCCOCC(=O)O", "data": [{"smiles": "CC(C)C[C@H](NC(=O)COCCOCCNC(=O)COCCOCCNC(=O)CC[C@H](NC(=O)CC[C@H](NC(=O)CCCCCCCCCCCCCCCCC(=O)O)C(=O)O)C(=O)O)C(=O)N[C@@H](CO)C(=O)NCC(=O)N[C@@H](CCCCN)C(=O)Nc1ccc(COC(=O)NCOCCn2cnc(-c3ccc(F)c(Cl)c3)c2-c2ccc3ncc(C#N)n3n2)cc1", "note": "({C18 diacid-γGlu-γGlu-AEEA-AEEA}-LSGK[PABC]-X1)", "values": [{"measurement": "concentration at 24 h", "setting": "[1]", "value": 5.2, "unit": "µM"}, {"measurement": "AUC at 24 h", "setting": "[2]", "value": 270, "unit": "µM·h"}, {"measurement": "remaining at 24 h", "setting": "[3]", "value": 92, "unit": "%"}, {"measurement": "remaining at 24 h", "setting": "[4]", "value": 87, "unit": "%"}, {"measurement": "Cmax", "setting": "[5]", "value": 0.12, "unit": "µM"}, {"measurement": "Cmax", "setting": "[6]", "value": 0.2, "unit": "µM"}, {"measurement": "Cmax", "setting": "[7]", "value": 0.31, "unit": "µM"}, {"measurement": "Tmax", "setting": "[8]", "value": 1, "unit": "h"}, {"measurement": "Tmax", "setting": "[9]", "value": 8, "unit": "h"}, {"measurement": "Tmax", "setting": "[10]", "value": 1, "unit": "h"}, {"measurement": "AUC", "setting": "[11]", "value": 3.9, "unit": "µM·h"}, {"measurement": "AUC", "setting": "[12]", "value": 6.7, "unit": "µM·h"}, {"measurement": "AUC", "setting": "[13]", "value": 12, "unit": "µM·h"}, {"measurement": "Ratio AUC", "setting": "[14]", "value": 1.7}, {"measurement": "Ratio AUC", "setting": "[15]", "value": 3.1}, {"measurement": "Ratio AUC", "setting": "[16]", "value": 1.8}, {"measurement": "Activity", "setting": "[17]", "value": "Non-Toxic"}, {"measurement": "Activity", "setting": "MC-38", "value": "Active"}, {"measurement": "AUC(0-t) at 2190 h", "setting": "[18]", "value": 27, "unit": "µM·h"}, {"measurement": "AUC(0-t) at 2190 h", "setting": "[19]", "value": 81, "unit": "µM·h"}, {"measurement": "AUC(0-t) at 2190 h", "setting": "[20]", "value": 15, "unit": "µM·h"}, {"measurement": "Activity", "setting": "[21]", "value": "Non-Toxic"}]}]}
